Measurements taken from patent publication US5563125A, “5'-deoxy-5'-(substituted)alkylthioribose compounds and their pharmaceutical compositions” (priority 1992, dated 1996).

Tests used:
[1] = tested on: Plasmodium falciparum (Strain FCR-3: ATCC #30932); test: Antimalarial activity in vitro, 3H-hypoxanthine incorporation; type: cell-based; conditions: strain FCR-3, in vitro
Protocol: P. falciparum was cultured by the method of Trager and Jensen (1976). The FCR-3 strain was used for all experiments. For enzyme measurements, parasites were isolated from infected red cells by saponin lysis and stored at -70° C.
To determine drug effects, ^3 H-hypoxanthine incorporation was measured in the following manner. Infected red cells and varying concentrations of drugs were aliquoted in triplicate wells of a 96-well microtiter plate (Corning). Each well contained a total volume of 200 μl with a final hematocrit of 5 percent and parasitemia of 0.5-1%. The microtiter plates were incubated at 37° C. in candle jars. ^3 H-hypoxanthine (0.5 μCi) was added to each well after 24 hours. After an additional 24 hours of incubation, the parasites were harvested using a PHD cell harvester (Cambridge Technologies). Filters were immersed in Aquasol (New England Nuclear) and counted using a LKB rack beta scintillation counter.
*Concentration which inhibits growth by 50% when compared to untreated,
control cultures, and under defined assay conditions.

[2] = tested on: T. b. brucei procyclic trypanosomes (Lab 110 EATRO strain); test: In vitro antitrypanosomal activity, procyclic trypanosomes in T2 medium; type: cell-based, Trypanosoma brucei brucei; conditions: Trypanosoma brucei, 3-5 days
Protocol: The antitrypanosomal effects of HETA and other nucleosides were examined in the Lab 110 EATRO strain of T. b. brucei in culture.
Cells were cultured as described in Bacchi et al. Exp. Parasitol. 68, 392, 1989. Cells were then grown in the presence of the compounds for 3-5 days. Drugs were filtered, sterilized and added aseptically. Control cells achieved a maximum density of 1.5-3.5×10^7 /ml. Hemocytometer counts were made daily and the results were expressed as a percent of control growth. IC50 plots were obtained by graphing log (drug) vs. percent growth inhibition.
Trypanocidal Activity of MTA and MTR Analogs
against T. b. brucei procyclic trypanosomes in T2 medium.

[3] = tested on: P. falciparum; test: In vitro antimalarial activity of HETA; type: cell-based, Plasmodium falciparum; conditions: P. falciparum in vitro screen
[4] = substrate: CSC[C@H]1O[C@@H](n2cnc3c(N)ncnc32)[C@H](O)[C@@H]1O; test: Mouse liver MTA phosphorylase substrate/inhibitor assay; type: biochemical; conditions: other: mouse liver MTA phosphorylase
Protocol: ^a MTA phosphorylase activity was assayed as described in Sufrin et

| IC50 [1] | Molecule | IC50 [2] | growth of the microorganism inhibited in an in vitro screen [3] | Km [4] |
| --- | --- | --- | --- | --- |
| > 1000 µM | OCCSC[C@H]1OC(O)[C@H](O)[C@@H]1O (stereo partly shown) [HETR, 5-deoxy-5-(hydroxyethylthio)ribose] | > 100 µM | not |  |
| > 1000 µM | CCSC[C@H]1OC(O)[C@H](O)[C@@H]1O (stereo partly shown) [ETR, 5-deoxy-5-(ethylthio)ribose, reference compound] | > 100 µM |  |  |
|  | Mouse Liver MTA Phosphorylase (Mus musculus) (protein, of Mouse Liver MTA Phosphorylase; from tissue; host or cells: mouse liver) MASGSACTAVKIGIIGGTGLDDPEILEGRTEKYVDTPFGKPSDALILGKIKNVDCVLLARHGRQHTIMPSKVNYQANIWALKEEGCTHVIVTTACGSLREEIQPGDMVIIDQFIDRTSLRPQTFYDGSHCSARGVCHIPMAEPFCPKTREVLIETAKKLGLRCHSKGTIVTIEGPRFSSRAESLIFRTWGADVVNMTTVPEVVLAKEAGICYASIAMATDYDCWKEHEEAVSVDGVLKTMKENANKAKSLLLTTIPQIGSMEWSETLRNLKNMAQFSVLPPRH |  |  | 1.3 µM |

| Molecule | IC50 [1] | IC50 [2] | growth of the microorganism inhibited in an in vitro screen [3] | Km [4] |
| --- | --- | --- | --- | --- |
| OC1O[C@H](CSCCF)[C@@H](O)[C@H]1O (stereo partly shown) [MFETR, 5-deoxy-5-(monofluoroethylthio)ribose] | 700 µM |  |  |  |
